Source: US20190030018A1 (Celgene Corporation, priority 2017, published 2019)
Where two headings read alike, the source gives them in different places.

Assays:
[1] = system: AML cell lines; experiment: In vitro combination studies, CellTitre-Glo cell viability (Bliss, Loewe, HSA, CES synergy analysis); details: FLT3 and JAK inhibitors in combination with Compound 1 in MOLM-13 and NOMO-1 cell lines
Procedure: where EA and EB represent the effect of each single agent and EAB represents the effect of the combination at a given dose.
All data was analyzed using the CES equation:
In cases where single agent dose response fit a Hill slope, the CES analysis was compared to Loewe, Bliss, and HSA models.

[2] = system: stomach cancer cell line GA0087; experiment: GA0087 PDX model ex vivo 3D methylcellulose CellTiter-Glo cell viability assay (IC50, matrix combination, Combination Index)
Procedure: (§1) Materials and Methods: The stomach cancer cell line GA0087 was used in this study. […] Culture media was purchased from GIBCO or Sigma, USA.
(§2) Everolimus was obtained from Selleck. Cisplatin was used as a reference drug, and was obtained from Hospira Australia pty Ltd.
(§3) PDX tumor models were maintained at Crownbio HuPrime animal facility. Tumor growth was monitored weekly. Tumor volumes were measured in two dimensions using a caliper, and the volume was expressed in mm^3 using the formula: V=0.5 a×b^2 where a and b are the long and short diameters of the tumor, respectively. • 2. Mouse xenografts at tumor volume around 800 mm^3 were housed with sterile surgical tools and tumor tissue was minced into tiny pieces with scissors in small amount of PBS on a new tissue culture plate. • 3. The cell suspension was filtered through Falcon cell strainer. The nylon mesh was washed 3-5 times with PBS. • 4. The cell suspension was centrifuged at 1000 rpm for 5 minutes and the pellet was washed with PBS and centrifuged again. • 5. Red blood cells were removed using red blood cell lysis buffer. • 6. The cell suspension was centrifuged at 1000 rpm for 5 minutes and the pellet was washed with PBS and centrifuged again. • 7. The cell pallet was re-suspended with appropriate cell culture media for different cells. • 8. Cells were counted with Countstar by trypan blue exclusion.
(§4) Day −1: Cell Plating • 1. The cells were harvested during the logarithmic growth period. The harvested cells were cultured with appropriate cell media and centrifuged at 1000 rpm for 3 minutes. […] (Cell concentration was adjusted according to the data base or density optimization assay). • 3. 3.5 mL of cell suspension was mixed with 6.5 mL of 1% methylcellulose. […] 90 μL cell suspensions were added to 96-well plates according to plate map with final cell density. Two duplicate plates were set up: one for day 0 reading (T0) and the other was cultured in incubator for reading at the end point.
(§5) Day 0: T0 Plate Reading and Compound Treatment • 5.10 μL culture medium was added to T0 plate in each well for T0 reading. • 6.100 μl CellTiter-Glo® Reagent was added to each well. • 7. The contents were mixed for 2 minutes on an orbital shaker to facilitate cell lysis. • 8. The plates were allowed to incubate at room temperature for 10 minutes to stabilize luminescent signal. • 9. A backseal black sticker was placed to the bottom of each plate. • 10. The luminescence was read using EnVision Multi Label Reader. • 11.
(§6) The solutions were stored at −20° C. […] The response score was calculated by normalizing to DMSO control. The combination index (CI) was calculated using Chou and Talalay method, wherein a CI of less than 1 indicates synergy. Cisplatin was used as control in the single compound dose response, but was not included in the combination test.
(§7) After drug incubation, pictures for representative wells were taken using a phase contrast microscope. • 13. 100 μL CellTiter-Glo® Reagent was added to each well. • 14. Contents were mixed for 2 minutes on an orbital shaker to facilitate cell lysis. • 15. The plates were allowed to incubate at room temperature for 10 minutes to stabilize luminescent signal. • 16. Backseal black sticker was placed to the bottom of each plate. • 17. Luminescence was recorded using EnVision Multi Label Reader.
(§8) In order to calculate IC50, a dose-response curve was fitted using nonlinear regression model with a sigmoidal dose response. The formula of surviving rate is shown below, and the IC50 was automatically produced by GraphPad Prism 5.0.
(§9) The surviving rate (%)=(LumTest article−LumMedium control)/(LumNone treated−LumMedium control)×100%.

[3] = as above
Procedure: as §1, §2, §3, §4, §5, §6, §7, §8, §9

[4] = system: IL3 independent JAK2 V617F BaF3 cells; experiment: Combination studies with JAK2 inhibitors in engineered BaF3 cells, CellTitre-Glo after 3 days; type: cell-based; details: compared to the IL3 dependent lines
Procedure: Everolimus was included as a control. The cell viability was then measured by CellTitre-Glo® after 3 days.

[5] = system: ML-2; experiment: In vitro combination studies, CellTitre-Glo cell viability
[6] = system: KG-1; experiment: as above
[7] = system: OCI-AML-2; experiment: as above
[8] = system: NOMO-1; experiment: as above
[9] = system: OCT-AML-3; experiment: as above
[10] = system: F-36-P; experiment: as above
[11] = system: HL-60; experiment: as above
[12] = system: MV-4-11; experiment: as above
[13] = system: MOLM-13; experiment: as above
[14] = system: HNT-34; experiment: as above
[15] = ML-2, in combination with Compound 1
[16] = KG-1, in combination with Compound 1
[17] = OCI-AML-2, in combination with Compound 1
[18] = NOMO-1, in combination with Compound 1
[19] = OCI-AML-3, in combination with Compound 1
[20] = F-36-P, in combination with Compound 1
[21] = HL-60, in combination with Compound 1
[22] = MV-4-11, in combination with Compound 1
[23] = MOLM-13, in combination with Compound 1
[24] = HNT-34, in combination with Compound 1

SMILES | Synergy [1] | Synergy analysis for combinations with Compound 1 [5, 15] | Synergy analysis for combinations with Compound 1 [6, 16] | Synergy analysis for combinations with Compound 1 [7, 17] | Synergy analysis for combinations with Compound 1 [8, 18] | Synergy analysis for combinations with Compound 1 [9, 19] | Synergy analysis for combinations with Compound 1 [10, 20] | Synergy analysis for combinations with Compound 1 [11, 21] | Synergy analysis for combinations with Compound 1 [12, 22] | Synergy analysis for combinations with Compound 1 [13, 23] | Synergy analysis for combinations with Compound 1 [14, 24] | other results
C1=C/COCc2cc(ccc2OCCN2CCCC2)Nc2nccc(n2)-c2cccc(c2)COC/1 [pacritinib, reference compound] | Yes | – | – | – | – | – | – | – | – | – | – | –
N.N.[Cl][Pt][Cl] [cisplatin] | – | – | – | – | – | – | – | – | – | – | – | Maximal Inhibition ([2]; GA0087-1st experiment): 98.73%; Maximal Inhibition ([2]; GA0087-2nd experiment): 98.48%; IC50 ([3]; read-out: Absolute IC50, GA0087-1st experiment): 3.35 µM; IC50 ([3]; read-out: Absolute IC50, GA0087-2nd experiment): 3.53 µM; IC50 ([3]; read-out: Relative IC50, GA0087-1st experiment): 3.17 µM; IC50 ([3]; read-out: Relative IC50, GA0087-2nd experiment): 3.3 µM
N#CCNC(=O)c1ccc(-c2ccnc(Nc3ccc(N4CCOCC4)cc3)n2)cc1 [momelotinib, reference compound] | Yes | – | – | – | – | – | – | – | – | – | – | single agent sensitivity [4]: more sensitive
FC(F)(F)c1ccc(CNc2ccc(Cc3c[nH]c4ncc(Cl)cc34)cn2)cn1 [Pexidartinib] | Yes | No | No | No | No | No | No | No | Yes | Yes | No | –
CC(C)(C)c1cc(NC(=O)Nc2ccc(-c3cn4c(n3)sc3cc(OCCN5CCOCC5)ccc34)cc2)no1 [quizartinib, reference compound] | Yes | – | – | – | – | – | – | – | – | – | – | –
CC[C@@](C)(Nc1ccnc(-c2c[nH]c3ncccc23)n1)C(=O)NCC(F)(F)F [Decernotinib] | Yes | – | – | – | – | – | – | – | – | – | – | –
O=C(Nc1nc2cccc(-c3ccc(CN4CCS(=O)(=O)CC4)cc3)n2n1)C1CC1 [Filgotinib] | Yes | – | – | – | – | – | – | – | – | – | – | –
C/C=C(/C)C(=O)O[C@H]1C(C)=C2[C@H]([C@@H]1OC(=O)CCCCCCC)[C@@](C)(OC(C)=O)C[C@H](OC(=O)CCC)[C@@]1(O)[C@H]2OC(=O)[C@@]1(C)O [Thapsigargin] | – | No | No | No | No | No | No | No | No | No | No | –
CO[C@H]1/C=C\C=C(/C)C(=O)NC2=CC(=O)C(NCCN(C)C)=C(C[C@@H](C)C[C@H](OC)[C@H](O)[C@@H](C)/C=C(\C)[C@@H]1OC(N)=O)C2=O [Alvespimycin] | – | No | No | Yes | No | No | No | No | Yes | No | No | –
CC1(COc2ccc3c(c2)ncn3-c2ccc3cccc(N4CCC(N)CC4)c3n2)COC1 [Crenolanib] | Yes | No | No | No | No | No | No | No | Yes | Yes | No | –
COC(=O)C[C@](O)(CCCC(C)(C)O)C(=O)O[C@@H]1C(OC)=C[C@]23CCCN2CCc2cc4c(cc2[C@H]13)OCO4 [Omacetaxine] | – | No | No | No | No | No | No | No | No | No | No | –
CC(C)[C@]12O[C@H]1[C@@H]1O[C@]13[C@]1(O[C@H]1C[C@H]1C4=C(CC[C@@]13C)C(=O)OC4)[C@@H]2O [Triptolide] | – | No | No | No | No | No | No | No | No | Yes | No | –
CC(C)C[C@H](NC(=O)[C@@H](NC(=O)c1cccc(-c2ccccc2)n1)[C@@H](C)O)B(O)O [CEP-18770] | – | No | No | No | No | No | No | No | No | No | No | –
COC(=O)[C@H]1[C@@H](O)[C@@]2(O)c3c(OC)cc(O[C@@H]4O[C@@H]([C@H](O)CO)CO[C@H]4OC)cc3O[C@@]2(c2ccc(OC)cc2)[C@@H]1c1ccccc1 [Silvestrol] | – | No | No | No | No | No | No | No | No | No | No | –
C[C@@]12OC(=O)[C@]1([C@@H](O)[C@@H]1C=CCCC1)NC(=O)[C@@H]2CCCl [NPI-0052] | – | – | – | – | – | – | – | – | – | – | – | Synergy analysis for combinations with Compound 1 [5]: No; Synergy analysis for combinations with Compound 1 [6]: No; Synergy analysis for combinations with Compound 1 [7]: No; Synergy analysis for combinations with Compound 1 [8]: No; Synergy analysis for combinations with Compound 1 [9]: No; Synergy analysis for combinations with Compound 1 [10]: No; Synergy analysis for combinations with Compound 1 [11]: No; Synergy analysis for combinations with Compound 1 [12]: No; Synergy analysis for combinations with Compound 1 [13]: No; Synergy analysis for combinations with Compound 1 [14]: No
